How the values were obtained:
JAK 2 = JAK 2 (Homo sapiens, UniProt O60674); test: Biochemical potency on JAK2, TR-FRET LANCE Ultra kinase assay (examples 1-99); settings: ATP at Km (0.7 μM), read-out: JAK2 inhibitory activity (pIC50 class) (converted)
Method in brief: (§1)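 Inhibition of each JAK family kinase is measured as loss of phosphotyrosine signal on a ULight peptide, detected by Eu-PT66 antibody (final 0.5 nM) via time-resolved FRET. ATP sits near Km for each isoform. Dose–response spans 20 μM downward in 5-fold steps, 11 points.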

JAK 3 = target: T1, JAK 3 (Homo sapiens, UniProt P52333); test: Biochemical potency on JAK3, TR-FRET LANCE Ultra kinase assay (examples 1-99); settings: ATP at Km (0.2 μM), read-out: JAK3 inhibitory activity (pIC50 class) (converted)
T1 sequence (P52333 1-1124): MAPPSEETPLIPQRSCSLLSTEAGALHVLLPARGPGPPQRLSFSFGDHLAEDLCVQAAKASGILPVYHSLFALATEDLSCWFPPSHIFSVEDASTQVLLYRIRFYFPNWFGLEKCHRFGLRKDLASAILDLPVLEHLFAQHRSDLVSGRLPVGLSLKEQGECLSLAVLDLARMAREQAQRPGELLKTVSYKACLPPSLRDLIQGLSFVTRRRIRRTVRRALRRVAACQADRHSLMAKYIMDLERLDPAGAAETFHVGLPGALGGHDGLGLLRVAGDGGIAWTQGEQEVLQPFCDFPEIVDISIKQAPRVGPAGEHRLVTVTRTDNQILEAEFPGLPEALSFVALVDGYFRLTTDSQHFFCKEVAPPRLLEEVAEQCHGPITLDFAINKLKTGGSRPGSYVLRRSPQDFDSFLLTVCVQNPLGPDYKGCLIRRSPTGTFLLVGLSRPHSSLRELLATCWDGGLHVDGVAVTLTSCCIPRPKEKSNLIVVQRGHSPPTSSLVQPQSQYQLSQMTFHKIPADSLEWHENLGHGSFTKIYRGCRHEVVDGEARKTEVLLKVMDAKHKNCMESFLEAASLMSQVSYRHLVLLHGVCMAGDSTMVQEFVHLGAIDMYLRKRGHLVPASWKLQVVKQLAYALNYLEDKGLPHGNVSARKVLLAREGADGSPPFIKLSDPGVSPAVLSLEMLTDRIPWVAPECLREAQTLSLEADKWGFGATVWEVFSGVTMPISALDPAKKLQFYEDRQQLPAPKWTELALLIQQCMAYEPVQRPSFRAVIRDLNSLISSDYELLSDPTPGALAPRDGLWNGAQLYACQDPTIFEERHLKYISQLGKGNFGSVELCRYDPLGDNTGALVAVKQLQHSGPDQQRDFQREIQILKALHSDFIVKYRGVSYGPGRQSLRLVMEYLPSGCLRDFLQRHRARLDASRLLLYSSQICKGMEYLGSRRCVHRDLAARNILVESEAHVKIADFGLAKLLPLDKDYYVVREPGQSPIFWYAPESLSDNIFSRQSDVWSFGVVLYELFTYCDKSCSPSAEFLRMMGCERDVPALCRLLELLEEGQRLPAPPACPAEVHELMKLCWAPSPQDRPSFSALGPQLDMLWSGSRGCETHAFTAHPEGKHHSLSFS
Method in brief: as §1

JAK 1 = JAK 1 (Homo sapiens, UniProt P23458); test: Biochemical potency on JAK1, TR-FRET LANCE Ultra kinase assay (examples 1-99); settings: ATP at Km (20 μM), read-out: JAK1 inhibitory activity (pIC50 class) (converted)
Chain of JAK 1 (P23458 whole entry): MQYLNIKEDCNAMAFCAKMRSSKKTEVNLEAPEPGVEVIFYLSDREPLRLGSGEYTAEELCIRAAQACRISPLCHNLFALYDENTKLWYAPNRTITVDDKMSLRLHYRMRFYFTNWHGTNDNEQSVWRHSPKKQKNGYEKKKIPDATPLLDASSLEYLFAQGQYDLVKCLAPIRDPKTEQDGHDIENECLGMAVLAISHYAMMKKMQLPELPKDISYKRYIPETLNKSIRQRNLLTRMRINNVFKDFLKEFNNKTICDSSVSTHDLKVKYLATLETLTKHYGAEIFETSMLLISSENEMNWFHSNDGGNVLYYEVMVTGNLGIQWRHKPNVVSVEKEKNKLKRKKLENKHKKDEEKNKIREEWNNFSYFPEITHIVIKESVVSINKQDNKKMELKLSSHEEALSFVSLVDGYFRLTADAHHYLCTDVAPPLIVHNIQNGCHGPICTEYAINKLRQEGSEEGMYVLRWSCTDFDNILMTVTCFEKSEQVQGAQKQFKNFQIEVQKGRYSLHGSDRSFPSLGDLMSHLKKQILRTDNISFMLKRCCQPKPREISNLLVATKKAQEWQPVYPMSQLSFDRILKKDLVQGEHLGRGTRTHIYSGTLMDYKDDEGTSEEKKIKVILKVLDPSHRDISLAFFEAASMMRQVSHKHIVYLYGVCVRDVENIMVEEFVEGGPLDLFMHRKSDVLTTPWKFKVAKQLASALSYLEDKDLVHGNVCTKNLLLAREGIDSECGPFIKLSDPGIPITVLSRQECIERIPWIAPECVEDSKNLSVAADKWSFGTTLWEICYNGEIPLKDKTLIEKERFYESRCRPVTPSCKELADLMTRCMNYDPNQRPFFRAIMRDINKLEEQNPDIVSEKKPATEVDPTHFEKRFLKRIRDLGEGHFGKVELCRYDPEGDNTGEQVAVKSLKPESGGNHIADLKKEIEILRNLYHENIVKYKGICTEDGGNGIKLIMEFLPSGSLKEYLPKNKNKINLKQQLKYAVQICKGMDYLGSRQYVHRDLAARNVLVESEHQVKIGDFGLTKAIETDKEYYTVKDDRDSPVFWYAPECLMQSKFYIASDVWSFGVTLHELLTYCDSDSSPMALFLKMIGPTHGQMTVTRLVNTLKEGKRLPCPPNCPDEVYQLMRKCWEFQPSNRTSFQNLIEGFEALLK
Method in brief: as §1

TYK2 = TYK2 (Homo sapiens, UniProt P29597); test: Biochemical potency on Tyk2, TR-FRET LANCE Ultra kinase assay (examples 1-99); settings: ATP at Km (12 μM), read-out: Tyk2 inhibitory activity (pIC50 class) (converted)
Chain of TYK2 (P29597 whole entry): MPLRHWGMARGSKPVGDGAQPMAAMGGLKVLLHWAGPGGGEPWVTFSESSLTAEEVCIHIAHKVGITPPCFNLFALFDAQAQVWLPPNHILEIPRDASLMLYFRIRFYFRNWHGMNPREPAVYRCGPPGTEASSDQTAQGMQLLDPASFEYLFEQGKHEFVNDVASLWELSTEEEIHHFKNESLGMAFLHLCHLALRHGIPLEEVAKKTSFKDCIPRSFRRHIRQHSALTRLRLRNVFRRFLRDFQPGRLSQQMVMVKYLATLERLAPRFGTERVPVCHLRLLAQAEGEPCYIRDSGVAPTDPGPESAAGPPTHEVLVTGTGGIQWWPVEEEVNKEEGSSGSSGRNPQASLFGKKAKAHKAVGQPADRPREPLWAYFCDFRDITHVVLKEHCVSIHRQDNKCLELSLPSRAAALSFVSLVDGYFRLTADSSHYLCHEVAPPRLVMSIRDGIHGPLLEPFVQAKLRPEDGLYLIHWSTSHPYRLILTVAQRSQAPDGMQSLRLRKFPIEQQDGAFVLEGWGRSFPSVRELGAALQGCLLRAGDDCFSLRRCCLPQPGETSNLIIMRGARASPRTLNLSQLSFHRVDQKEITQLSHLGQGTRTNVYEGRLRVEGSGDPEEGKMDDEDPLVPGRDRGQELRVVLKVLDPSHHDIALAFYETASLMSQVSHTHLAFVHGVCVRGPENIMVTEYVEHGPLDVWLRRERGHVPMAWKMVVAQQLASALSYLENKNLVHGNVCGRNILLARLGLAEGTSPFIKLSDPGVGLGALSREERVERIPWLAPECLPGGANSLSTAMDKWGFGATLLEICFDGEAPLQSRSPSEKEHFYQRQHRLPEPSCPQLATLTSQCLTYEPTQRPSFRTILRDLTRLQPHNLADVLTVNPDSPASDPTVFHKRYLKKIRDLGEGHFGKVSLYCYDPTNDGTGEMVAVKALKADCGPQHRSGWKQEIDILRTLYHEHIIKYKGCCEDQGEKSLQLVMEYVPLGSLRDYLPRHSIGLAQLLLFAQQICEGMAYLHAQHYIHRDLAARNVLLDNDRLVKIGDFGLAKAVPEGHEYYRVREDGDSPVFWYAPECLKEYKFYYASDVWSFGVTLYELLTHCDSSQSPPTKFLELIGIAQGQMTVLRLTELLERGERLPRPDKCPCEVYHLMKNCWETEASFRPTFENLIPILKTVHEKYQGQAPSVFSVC
Method in brief: as §1

Chain of JAK 2 (O60674 whole entry, canonical isoform): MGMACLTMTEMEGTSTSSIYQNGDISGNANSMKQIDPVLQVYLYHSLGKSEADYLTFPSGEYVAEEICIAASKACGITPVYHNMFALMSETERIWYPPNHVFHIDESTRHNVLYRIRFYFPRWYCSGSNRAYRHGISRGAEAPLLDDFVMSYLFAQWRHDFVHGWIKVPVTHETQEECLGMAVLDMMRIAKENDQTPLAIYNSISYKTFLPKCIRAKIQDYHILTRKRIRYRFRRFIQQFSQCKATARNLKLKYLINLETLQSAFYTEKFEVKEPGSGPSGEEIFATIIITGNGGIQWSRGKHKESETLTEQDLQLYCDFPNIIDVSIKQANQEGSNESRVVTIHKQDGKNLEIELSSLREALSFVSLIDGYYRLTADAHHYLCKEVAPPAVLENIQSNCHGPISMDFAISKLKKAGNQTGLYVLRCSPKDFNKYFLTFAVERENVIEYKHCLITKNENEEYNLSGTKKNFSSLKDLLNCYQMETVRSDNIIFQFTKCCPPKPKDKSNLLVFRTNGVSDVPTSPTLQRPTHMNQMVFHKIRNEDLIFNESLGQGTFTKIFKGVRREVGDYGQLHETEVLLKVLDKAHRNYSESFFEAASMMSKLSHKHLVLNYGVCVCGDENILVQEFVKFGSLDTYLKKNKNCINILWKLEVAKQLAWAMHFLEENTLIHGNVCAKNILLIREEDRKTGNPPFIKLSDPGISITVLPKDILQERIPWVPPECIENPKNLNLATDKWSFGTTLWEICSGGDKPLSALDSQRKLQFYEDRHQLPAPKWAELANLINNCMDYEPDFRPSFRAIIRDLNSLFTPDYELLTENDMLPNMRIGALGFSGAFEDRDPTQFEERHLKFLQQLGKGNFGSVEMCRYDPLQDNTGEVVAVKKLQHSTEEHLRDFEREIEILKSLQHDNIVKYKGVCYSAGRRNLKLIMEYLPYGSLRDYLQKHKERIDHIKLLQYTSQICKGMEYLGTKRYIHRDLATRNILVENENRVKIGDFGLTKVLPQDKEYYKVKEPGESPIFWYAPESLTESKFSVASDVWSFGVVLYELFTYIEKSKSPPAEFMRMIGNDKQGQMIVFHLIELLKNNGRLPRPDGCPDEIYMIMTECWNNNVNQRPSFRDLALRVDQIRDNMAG

Row | Compound | IC50 (JAK 2) | IC50 (JAK 3) | IC50 (JAK 1) | IC50 (TYK2)
1 | COc1ccc(Cl)cc1-n1nc(N)c2cnc(-c3cnn4cccnc34)cc21 [Example 39, 1-(5-chloro-2-methoxyphenyl)-6-(pyrazolo[1,5-a]pyrimidin-3-yl)-1H-pyrazolo[4,3-c]pyridin-3-amine] | ≤ 5.01 nM | ≤ 5.01 nM | ≤ 5.01 nM | 5.01 to 50.1 nM
2 | NC1CN(Cc2nn(-c3cc(Cl)ccc3OC(F)F)c3cc(-c4cnn5cccnc45)ncc23)C1 [Example 76, 1-((1-(5-chloro-2-(difluoromethoxy)phenyl)-6-(pyrazolo[1,5-a]pyrimidin-3-yl)-1H-pyrazolo[4,3-c]pyridin-3-yl)methyl)azetidin-3-amine] | 5.01 to 50.1 nM | 5.01 to 50.1 nM | 5.01 to 50.1 nM | > 50.1 nM

— patent US20240279240A1, “HETEROCYCLIC DERIVATIVES AS JANUS KINASE INHIBITORS” (CHIESI FARMACEUTICI S.P.A., priority 2021, published 2024)
